Key:
Type in all cases: cell-based
[1] = system: rat aortic VSMC; assay: Resazurin conversion assay of PDGF-induced VSMC proliferation; conditions: for activity at 30 µM: 30 µM compound, residual proliferation relative to PDGF + 0.1% DMSO control = 1.00, means ± SD, n = 3, read-out: Inhibition of VSMC Proliferation, Resazurin Conversion Assay, at 30 µM (Relative to Solvent vehicle = 1.00, RU); for activity at 30 µM / IC50: PDGF-BB 20 ng/mL; for IC50: concentrations 1, 3, 10, 30 µM, read-out: Inhibition of VSMC Proliferation, Resazurin Conversion Assay, IC50; for Anti-proliferative activity in rat aortic VSMC (in words): summary rating of the 14 xanthones
Procedure: With the aim to identify novel natural product inhibitors of VSMC proliferation, we tested several natural products (not shown) from our in-house compound collection on their ability to inhibit proliferation of rat aortic VSMC induced by the platelet-derived growth factor (PDGF), which is a mitogen strongly associated with aberrant proliferation in restenosis and leads to excessive proliferation of VSMC. After stimulation of the VSMC for 48 h with PDGF, the total number of metabolically active cells was measured by resazurin conversion. In this way, the xanthone gentisin (1,7-dihydroxy-3-methoxyxanthone (1)), previously isolated from the root material of G. lutea, a well-known medicinal bitter plant from the Gentianaceae family, was identified as a novel inhibitor of VSMC proliferation. […] Although an anti-proliferative effect of a prenylated xanthone has been described earlier, it represents a novel activity for simple, nonprenylated xanthones.
(§1) Rat aortic VSMC were acquired from Lonza and grown in Dulbecco’s modified essential medium (DMEM)–F12 (1:1) supplemented with 20% fetal calf serum (FCS) and gentamycin. For all experiments, cells were seeded in 96-well plates (5 × 10^3 cells/well) and incubated for 24 h. Subsequently, cells were serum-starved for another 24 h to make them quiescent.
Quiescent VSMC were pre-treated with the studied test compounds, G. lutea root extract, or vehicle (0.1% DMSO) for 30 min and then stimulated with PDGF-BB (20 ng/mL) for 48 h. The number of metabolically active VSMC was measured by resazurin conversion. Therefore, after washing the cells with phosphate-buffered saline (PBS), they were incubated in serum-free medium containing resazurin (10 µg/mL) for 2 h. Measurement of total metabolic activity was performed by monitoring the increase in fluorescence at 590 nm using an excitation wavelength of 535 nm in a 96-well plate reader (Tecan GENios Pro, Grödig, Austria). The assay was validated using the VSMC proliferation inhibitor taxol (IC50 = 0.1 µM [21]).

[2] = system: rat aortic VSMC; assay: Assessment of cytotoxicity by LDH release; conditions: concentration range up to 30 µM; PDGF-BB 20 ng/mL, 24 h
Procedure: Loss of VSMC membrane integrity as a sign for cell death was quantified by measuring the release of the soluble cytosolic protein LDH.
as §1
Quiescent VSMC were pre-treated with test compounds, positive control (digitonin 100 µg/mL, corresponding to 81 µM), or vehicle (0.1% DMSO) for 30 min and then stimulated with PDGF-BB (20 ng/mL) for 24 h. Loss of cell membrane integrity as an indicator for cell death was quantified by measuring the release of LDH [31, 32]. Therefore, the LDH activity of the cell supernatant was determined. To estimate total LDH, identically treated samples were incubated in the presence of 1% Triton X-100 for 45 min. […] The enzyme reaction was stopped by oxymate (1.78 mg/mL) and the absorbance was read at 490 nm. The percentage of extracellular LDH enzyme activity was calculated to estimate potential effects of the samples on cell viability.

[3] = system: rat aortic VSMC; assay: BrdU incorporation assay (DNA synthesis) in PDGF-stimulated VSMC; conditions: PDGF-BB 20 ng/mL, BrdU added after 2 h, read after 22 h, read-out: Inhibition of VSMC Proliferation, BrdU Assay, IC50
Procedure: In this assay, the DNA synthesis in dividing VSMC is measured by quantification of BrdU incorporation into newly synthesized DNA.
as §1
Quiescent VSMC were pre-treated with test compounds or vehicle (0.1% DMSO) for 30 min and then stimulated with PDGF-BB (20 ng/mL) for 2 h. Subsequently, BrdU was added to estimate de novo DNA synthesis in VSMC [29, 30]. After 22 h, the BrdU incorporation was determined according to the instructions of the manufacturer (Roche Diagnostics, Vienna, Austria).

[4] = Rattus norvegicus, VSMC, 48 h, 48 h

Structure (SMILES)	activity at 30 µM ([1]; Rattus norvegicus, VSMC, 48 h) [%]	IC50 [1, 4] [µM]	Anti-proliferative activity in rat aortic VSMC (in words) [1]	Cytotoxicity (LDH release in the culture medium) [2]	IC50 [3] [µM]	Inhibition of PDGF-induced VSMC proliferation at 30 µM (in words) ([1]; 30 µM, 48 h, resazurin conversion)	IC50 ([1]; 48 h) [µM]
COc1cc(O)c2c(=O)c3c(O)ccc(O)c3oc2c1 [Compound 9, 1,5,8-trihydroxy-3-methoxyxanthone]	78.3 ± 3.1						
COc1c(O)cc2oc3c(O)cccc3c(=O)c2c1O [Compound 14, 1,3,5-trihydroxy-2-methoxyxanthone]	86.2 ± 10.4						
COc1cc(O)c2c(=O)c3c(O)c(OC)ccc3oc2c1 [Compound 7, 1,8-dihydroxy-3,7-dimethoxyxanthone]	0.2 ± 1.4	10.2	potent inhibitory activity	not cytotoxic	7.53		
COc1cc(O)c2c(=O)c3c(O)ccc(OC)c3oc2c1 [Compound 6, 1,8-dihydroxy-3,5-dimethoxyxanthone]	51.4 ± 6.7	12.5	potent inhibitory activity	not cytotoxic	7.37		
COc1cc(O)c2c(=O)c3cccc(O)c3oc2c1 [Compound 8, 1,5-dihydroxy-3-methoxyxanthone]	71.3 ± 6.1	29.5	moderately active				
COc1ccc2oc3cc(O)cc(O)c3c(=O)c2c1 [Compound 2, 1,3-dihydroxy-7-methoxyxanthone]	59.3 ± 8.4	27	moderately active				
COc1cc(O)c2c(=O)c3c(OC)c(OC)c(O)c(OC)c3oc2c1 [Compound 12, 1,6-dihydroxy-3,5,7,8-tetramethoxyxanthone]	86.2 ± 6.8						
COc1cc(O)c2c(=O)c3ccc(O)c(OC)c3oc2c1 [Compound 10, 1,6-dihydroxy-3,5-dimethoxyxanthone]	98.7 ± 2.5						
COc1ccc2oc3c(OC)c(OC)c(OC)c(O)c3c(=O)c2c1 [Compound 5, 1-hydroxy-2,3,4,7-tetramethoxyxanthone]	75.4 ± 1.4		weakly active or inactive				
COc1cc2oc3c(OC)cccc3c(=O)c2c(O)c1OC [Compound 3, 1-hydroxy-2,3,5-trimethoxyxanthone]	83.2 ± 10.4		weakly active or inactive				
COc1cc(O)c2c(=O)c3cc(O)ccc3oc2c1 [Compound 1, 1,7-dihydroxy-3-methoxyxanthone]	33.5 ± 17.5	7.8	most potent compound	not cytotoxic	5.74	completely inhibited PDGF-induced proliferation to the basal level	7.84
COc1c(O)cc2oc3c(OC)c(O)ccc3c(=O)c2c1O [Compound 11, 1,3,6-trihydroxy-2,5-dimethoxyxanthone]	94.2 ± 4.2						
COc1cc(O)c2c(=O)c3c(O)c(OC)c(O)c(OC)c3oc2c1 [Compound 13, 1,6,8-trihydroxy-3,5,7-trimethoxyxanthone]	84.6 ± 9.6						
COc1c(OC)c(O)c2c(=O)c3cccc(OC)c3oc2c1OC [Compound 4, 1-hydroxy-2,3,4,5-tetramethoxyxanthone]	21.6 ± 5.8	11.2	potent inhibitory activity	not cytotoxic	24.5		

— publication PMC6332299, “Nonprenylated Xanthones from Gentiana lutea, Frasera caroliniensis, and Centaurium erythraea as Novel Inhibitors of Vascular Smooth Muscle Cell Proliferation” (Molecules, 2015)
